Activity calls are given as the source filed them. The rule behind the calls is not given here.

For the data set, the system named is rodent lifetime carcinogenesis bioassay, tumor incidence TD50. As to the kind of experiment: chronic cancer bioassays in animals – CPDB, compiled studies (AID 1745844). The following applies: in feed.

For the compound `CCOc1ccc(NC(C)=O)cc1`, the TD50 (usually the 50% point of the dose-response relation for the toxic effect studied) (mouse, strain B6C3F1, females, site: liver, lesion: hemangioma, dosed 96 weeks, study length 104 weeks) was 29200 mg/kg/day (inactive); the TD50 (mouse, strain B6C3F1, females, site: liver, lesion: hepatocellular carcinoma, dosed 96 weeks, study length 104 weeks) was 47700 mg/kg/day (inactive); the TD50 (mouse, strain B6C3F1, females, site: liver, lesion: hyperplastic nodule, dosed 96 weeks, study length 104 weeks) was 14000 mg/kg/day (inactive); the TD50 (mouse, strain B6C3F1, females, site: lung, lesion: adenocarcinoma, dosed 96 weeks, study length 104 weeks) is 8830 mg/kg/day (inactive); the TD50 (mouse, strain B6C3F1, females, site: lung, lesion: adenoma, dosed 96 weeks, study length 104 weeks) was 6890 mg/kg/day (inactive); the TD50 (mouse, strain B6C3F1, females, site: urinary bladder, lesion: papilloma, dosed 96 weeks, study length 104 weeks) is 37000 mg/kg/day. The TD50 reads like this: (mouse, strain B6C3F1, females, site: urinary bladder, lesion: transitional-cell carcinoma, dosed 96 weeks, study length 104 weeks) 37000 mg/kg/day; (mouse, strain B6C3F1, males, site: kidney, lesion: renal-cell adenoma, dosed 96 weeks, study length 104 weeks) 1100 mg/kg/day; (mouse, strain B6C3F1, males, site: kidney, lesion: renal-cell carcinoma, dosed 96 weeks, study length 104 weeks) 4020 mg/kg/day; (mouse, strain B6C3F1, males, site: liver, lesion: hepatocellular carcinoma, dosed 96 weeks, study length 104 weeks) 17100 mg/kg/day (inactive); (mouse, strain B6C3F1, males, site: lung, lesion: adenocarcinoma, dosed 96 weeks, study length 104 weeks) 3800 mg/kg/day (inactive); (mouse, strain B6C3F1, males, site: lung, lesion: adenoma, dosed 96 weeks, study length 104 weeks) 5280 mg/kg/day (inactive). For the same compound, the TD50 reads like this: (mouse, strain C57BL/6, males, site: liver, lesion: hyperplastic nodule, dosed 77 weeks, study length 77 weeks) 12900 mg/kg/day (inactive); (rat, strain Sprague-Dawley, females, site: all sites, lesion: myeloid leukemia, dosed 78 weeks, study length 104 weeks) 2560 mg/kg/day (inactive); (rat, strain Sprague-Dawley, females, site: any site (literature study), lesion: several types, types named in the paper, dosed 78 weeks, study length 104 weeks) 1210 mg/kg/day; (rat, strain Sprague-Dawley, females, site: ear duct, lesion: squamous-cell carcinoma, dosed 110 weeks, study length 110 weeks) 1430 mg/kg/day; (rat, strain Sprague-Dawley, females, site: mammary gland, lesion: adenocarcinoma, dosed 110 weeks, study length 110 weeks) 1380 mg/kg/day; (rat, strain Sprague-Dawley, females, site: nasal cavity, lesion: adenocarcinoma, dosed 78 weeks, study length 104 weeks) 7730 mg/kg/day. For the same compound, the TD50 was 48000 mg/kg/day (rat, strain Sprague-Dawley, females, site: nasal cavity, lesion: squamous-cell carcinoma, dosed 78 weeks, study length 104 weeks); 23800 mg/kg/day (rat, strain Sprague-Dawley, females, site: nasal cavity, lesion: transitional-cell carcinoma, dosed 78 weeks, study length 104 weeks); 2730 mg/kg/day (rat, strain Sprague-Dawley, females, site: several sites, sites named in the paper, lesion: several types, types named in the paper, dosed 78 weeks, study length 104 weeks); 23800 mg/kg/day (rat, strain Sprague-Dawley, females, site: urinary bladder, lesion: papilloma, dosed 78 weeks, study length 104 weeks); 11700 mg/kg/day (rat, strain Sprague-Dawley, females, site: urinary bladder, lesion: transitional-cell carcinoma, dosed 78 weeks, study length 104 weeks); 2380 mg/kg/day (inactive) (rat, strain Sprague-Dawley, males, site: all sites, lesion: myeloid leukemia, dosed 78 weeks, study length 104 weeks). Moreover, the TD50 is, setting by setting: (rat, strain Sprague-Dawley, males, site: any site (literature study), lesion: several types, types named in the paper, dosed 78 weeks, study length 104 weeks) 631 mg/kg/day; (rat, strain Sprague-Dawley, males, site: forestomach, lesion: squamous-cell papilloma, dosed 117 weeks, study length 117 weeks) 2690 mg/kg/day; (rat, strain Sprague-Dawley, males, site: kidney cortex, lesion: renal-cell tumor, dosed 117 weeks, study length 117 weeks) 1300 mg/kg/day; (rat, strain Sprague-Dawley, males, site: kidney/pelvis, lesion: one or several types, types not named, dosed 117 weeks, study length 117 weeks) 5470 mg/kg/day; (rat, strain Sprague-Dawley, males, site: kidney/pelvis, lesion: renal-cell carcinoma, dosed 78 weeks, study length 104 weeks) 38300 mg/kg/day; (rat, strain Sprague-Dawley, males, site: liver, lesion: hemangioma, dosed 117 weeks, study length 117 weeks) 5470 mg/kg/day. Further, the TD50 (rat, strain Sprague-Dawley, males, site: nasal cavity, lesion: adenocarcinoma, dosed 78 weeks, study length 104 weeks) was 2380 mg/kg/day; the TD50 (rat, strain Sprague-Dawley, males, site: nasal cavity, lesion: squamous-cell carcinoma, dosed 78 weeks, study length 104 weeks) is 7530 mg/kg/day; the TD50 (rat, strain Sprague-Dawley, males, site: nasal cavity, lesion: transitional-cell carcinoma, dosed 78 weeks, study length 104 weeks) is 4050 mg/kg/day; the TD50 (rat, strain Sprague-Dawley, males, site: several sites, sites named in the paper, lesion: several types, types named in the paper, dosed 78 weeks, study length 104 weeks) was 741 mg/kg/day; the TD50 (rat, strain Sprague-Dawley, males, site: urinary bladder, lesion: one or several types, types not named, dosed 117 weeks, study length 117 weeks) is 1640 mg/kg/day; the TD50 (rat, strain Sprague-Dawley, males, site: urinary bladder, lesion: transitional-cell carcinoma, dosed 78 weeks, study length 104 weeks) is 2710 mg/kg/day. Also, the carcinogen call is “negative (inactive)” (mouse, strain B6C3F1, males, site: liver, lesion: hemangioma, dosed 96 weeks, study length 104 weeks); “negative (inactive)” (mouse, strain B6C3F1, males, site: liver, lesion: hyperplastic nodule, dosed 96 weeks, study length 104 weeks); “negative (inactive)” (mouse, strain C57BL/6, females, site: liver, lesion: one or several types, types not named, dosed 77 weeks, study length 77 weeks); “negative (inactive)” (rat, strain Wistar, females, site: urinary tract, lesion: one or several types, types not named, dosed 69 weeks, study length 69 weeks).
Take `CCNC(=S)NCC`: the carcinogen call is, setting by setting: (mouse, strain B6C3F1, females, site: any site (literature study), lesion: several types, types named in the paper, dosed 103 weeks, study length 104 weeks) “negative (inactive)”; (mouse, strain B6C3F1, males, site: any site (literature study), lesion: several types, types named in the paper, dosed 103 weeks, study length 104 weeks) “negative (inactive)”. The TD50 runs as follows: (mouse, strain B6C3F1, females, site: liver, lesion: hepatocellular adenoma + hepatocellular carcinoma + neoplastic nodule, dosed 103 weeks, study length 104 weeks) 687 mg/kg/day; (rat, strain F344/DuCrj, males, site: thyroid gland, lesion: follicular-cell carcinoma, dosed 52 weeks, study length 52 weeks) 28.1 mg/kg/day; (rat, strain Fischer 344, females, site: any site (literature study), lesion: several types, types named in the paper, dosed 104 weeks, study length 104 weeks) 21.5 mg/kg/day; (rat, strain Fischer 344, females, site: thyroid gland, lesion: follicular-cell adenoma + follicular-cell carcinoma, dosed 104 weeks, study length 104 weeks) 23.8 mg/kg/day; (rat, strain Fischer 344, females, site: thyroid gland, lesion: follicular-cell carcinoma, dosed 104 weeks, study length 104 weeks) 57.9 mg/kg/day; (rat, strain Fischer 344, males, site: any site (literature study), lesion: several types, types named in the paper, dosed 103 weeks, study length 104 weeks) 12.9 mg/kg/day. Also, the TD50 by setting is: (rat, strain Fischer 344, males, site: thyroid gland, lesion: follicular-cell adenoma + follicular-cell carcinoma, dosed 103 weeks, study length 104 weeks) 24.3 mg/kg/day; (rat, strain Fischer 344, males, site: thyroid gland, lesion: follicular-cell carcinoma, dosed 103 weeks, study length 104 weeks) 33.6 mg/kg/day.
For `CCCCCCCCCc1ccc(OCCO)cc1`, the TD50 (mouse, strain B6C3F1, females, site: liver, lesion: hepatocellular adenoma, dosed 104 weeks, study length 104 weeks) was 8670 mg/kg/day (inactive). Further, the carcinogen call (mouse, strain B6C3F1, females, site: liver, lesion: hepatocellular carcinoma, dosed 104 weeks, study length 104 weeks) is “negative (inactive)”; the carcinogen call (rat, strain F344/DuCrj, females, site: liver, lesion: hepatocellular adenoma, dosed 104 weeks, study length 104 weeks) was “negative (inactive)”; the carcinogen call (rat, strain F344/DuCrj, females, site: liver, lesion: one or several types, types not named, dosed 52 weeks, study length 52 weeks) is “negative (inactive)”.
As to `CC(C)(c1ccc(O)cc1)c1ccc(O)cc1`, the carcinogen call is “negative (inactive)” (mouse, strain B6C3F1, females, site: any site (literature study), lesion: several types, types named in the paper, dosed 103 weeks, study length 107 weeks) and “negative (inactive)” (rat, strain Fischer 344, females, site: any site (literature study), lesion: several types, types named in the paper, dosed 103 weeks, study length 108 weeks). The TD50 (mouse, strain B6C3F1, females, site: liver, lesion: hepatocellular adenoma + hepatocellular carcinoma + neoplastic nodule, dosed 103 weeks, study length 107 weeks) was 13100 mg/kg/day; the TD50 (mouse, strain B6C3F1, females, site: lung, lesion: alveolar/bronchiolar adenoma + alveolar/bronchiolar carcinoma, dosed 103 weeks, study length 107 weeks) came out at 41400 mg/kg/day; the TD50 (mouse, strain B6C3F1, males, site: all sites, lesion: leukemia + lymphoma, dosed 103 weeks, study length 107 weeks) is 445 mg/kg/day (inactive); the TD50 (mouse, strain B6C3F1, males, site: all sites, lesion: lymphoma, dosed 103 weeks, study length 107 weeks) amounted to 508 mg/kg/day; the TD50 (mouse, strain B6C3F1, males, site: any site (literature study), lesion: several types, types named in the paper, dosed 103 weeks, study length 107 weeks) came out at 1.32e+06 mg/kg/day; the TD50 (mouse, strain B6C3F1, males, site: pituitary gland, lesion: chromophobe carcinoma, dosed 103 weeks, study length 107 weeks) turned out to be 6690 mg/kg/day. The TD50 by setting is: (rat, strain Fischer 344, females, site: liver, lesion: hepatocellular adenoma + hepatocellular carcinoma + neoplastic nodule, dosed 103 weeks, study length 108 weeks) 595 mg/kg/day; (rat, strain Fischer 344, males, site: mammary gland, lesion: fibroadenoma, dosed 103 weeks, study length 108 weeks) 675 mg/kg/day (inactive).
Take `CC(C)(C)NCC(O)c1cc(O)cc(O)c1` (configuration not stated): where the note is “rat, strain Charles River CD (Sprague-Dawley), females, site: mesovarium, lesion: leiomyoma, dosed 104 weeks, study length 104 weeks”, the TD50 is 410 mg/kg/day.
Take `NC(Cc1c[nH]c2ccccc12)C(=O)O` (configuration not stated): the carcinogen call was “negative (inactive)” (rat, strain Fischer, males, site: liver, lesion: one or several types, types not named, dosed 98 weeks, study length 98 weeks) and “negative (inactive)” (rat, strain Fischer, males, site: urinary bladder, lesion: one or several types, types not named, dosed 98 weeks, study length 98 weeks).

(Values after PubChem BioAssay AID1745844 (Carcinogenic Potency Database (CPDB), 2022).)
